Our source for the IC50, Ki and EC50 values is patent US5605906A, “Cannabinoid receptor agonists” (Merck Frosst Canada, Inc., priority 1995, dated 1997).

Several values for one entry are separate records, joined by “and”; a condition that tells them apart may be missing. Equal entries are not always repeated.

The target of assay [1] is T1, human central cannabinoid (CB 1) receptor (Homo sapiens, UniProt P21554).
T1 construct: expressed in transfected cells; host or cells: HEK293(EBNA)
The assay can be described thus: CB1 receptor binding assay ([3H]CP55940, HEK293(EBNA) membranes). As to conditions: [3H]CP55940 0.6 nM, pH 7.4, 30 °C, 60 min. How it is done:
The compound of Formula I can be tested using the following assays to determine their affinity for binding to the cannabinoid receptors.
Stable cell lines were constructed expressing either the human peripheral cannabinoid (CB2) receptor or the human central cannabinoid (CB 1) receptor as described previously (Gerard. et al., Molecular cloning of a human cannabinoid receptor which is also expressed in testis. Biochem. J. (279)129-134, 1991.). […]
CB2 receptor binding assays were performed in 0.2 ml of 10 mM HEPES/KOH (pH 7.4) containing 1 mM EDTA, 0.3 mg/ml human serum albumin (HSA), 1 mM MgCl2, and 2.4 nM [^3 H]Win 55212-2 (Dupont-NEN Canada, Mississauga, ON). […] The residual [^3 H]Win 55212-2 or [^3 H]CP55940(-) bound to the filters was determined by liquid scintillation counting following a 6h equilibration in 5 ml Biofluor O) (Dupont-NEN Canada, Mississauga, ON) scintillation cocktail (efficiency for tritium was approximately 55%). […]

The target of assay [2] is T2, human peripheral cannabinoid (CB2) receptor (Homo sapiens, UniProt P34972).
T2 construct: expressed in transfected cells; host or cells: CHO-K1
As to the kind of experiment: CB2 receptor binding assay ([3H]Win 55212-2, CHO-K1 membranes). As to conditions: [3H]Win 55212-2 2.4 nM, pH 7.4, 30 °C, 40 min.

Assay [3] concerns the target T2, human peripheral cannabinoid (CB2) receptor. The assay can be described thus: CB2 functional assay: cAMP assay in CHO-K1 cells expressing the CB2 receptor. It counts as cell-based. As to conditions: forskolin, 37 °C, 15 min.
Method: Stable cell lines were constructed expressing either the human peripheral cannabinoid (CB2) receptor or the human central cannabinoid (CB 1) receptor as described previously (Gerard. et al., Molecular cloning of a human cannabinoid receptor which is also expressed in testis. Biochem. J. (279)129-134, 1991.). Membranes were prepared from CHO-K1 cells stably expressing the CB2 receptor and HEK293(EBNA) cells stably expressing the CB 1 receptor by differential centrifugation (1000×g for 10 min, then 100,000×g for 30 min, both at 4° C.) following lysis of the cells by nitrogen cavitation at 800 psi for 15 min on ice, as previously described (Frey, E.A., et al., Characterization of the leukotriene D4 receptor in dimethylsulphoxide-dufferentiated U937 cells: comparison with the leukotriene D4 receptor in human-lung and guinea-pig lung. Eur. J. Pharma. (244) 239-250, 1993.). […]
CB2--CHO-K1 cells were seeded at 10^6 cells per 175 cm^2 T-flask in MEM alpha growth medium (MEM alpha medium containing 25 mM HEPES/KOH (pH 7.4), 10% heat inactivated fetal bovine serum, 20 units/ml penicillin G, 20 mg/ml streptomycin sulfate and 500 mg/ml G418) (GIBCO-BRL Canada, Burlington, ON). […] Cell viability was always >96% as determined by trypan blue exclusion. […]

T1 sequence (P21554 whole entry): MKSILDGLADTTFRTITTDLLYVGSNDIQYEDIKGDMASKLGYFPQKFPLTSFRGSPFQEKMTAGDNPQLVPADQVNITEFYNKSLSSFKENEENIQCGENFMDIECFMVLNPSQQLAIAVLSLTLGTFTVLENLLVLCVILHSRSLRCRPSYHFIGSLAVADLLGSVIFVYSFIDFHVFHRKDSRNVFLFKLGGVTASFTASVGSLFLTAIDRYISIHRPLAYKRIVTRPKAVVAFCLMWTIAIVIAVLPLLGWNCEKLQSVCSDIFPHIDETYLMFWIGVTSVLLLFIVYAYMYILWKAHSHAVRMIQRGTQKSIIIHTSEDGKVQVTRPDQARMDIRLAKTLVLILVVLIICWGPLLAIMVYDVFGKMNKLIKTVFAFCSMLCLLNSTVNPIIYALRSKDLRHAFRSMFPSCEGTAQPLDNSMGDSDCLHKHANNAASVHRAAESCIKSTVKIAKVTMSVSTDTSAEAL
T2 sequence (P34972 whole entry): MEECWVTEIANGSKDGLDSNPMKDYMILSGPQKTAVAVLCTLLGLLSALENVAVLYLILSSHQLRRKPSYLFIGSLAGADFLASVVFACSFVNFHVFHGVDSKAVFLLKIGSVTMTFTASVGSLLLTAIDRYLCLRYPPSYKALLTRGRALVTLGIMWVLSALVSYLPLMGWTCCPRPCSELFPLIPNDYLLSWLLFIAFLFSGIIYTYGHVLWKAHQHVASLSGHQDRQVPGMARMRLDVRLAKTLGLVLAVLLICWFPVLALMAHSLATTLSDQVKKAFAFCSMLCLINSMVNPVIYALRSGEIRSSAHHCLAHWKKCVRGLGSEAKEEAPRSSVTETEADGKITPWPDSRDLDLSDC

On to `CCCCCCC(C)(C)c1cc(O)c2c(c1)OC(C)(C)[C@@H]1CC=C(CO)C[C@@H]21` [HU-210, reference compound], for which the IC50 (as a rule, the concentration that gives 50% inhibition) in assay [1] amounted to 2.5 ± 0.2 nM.
Turning to `COc1ccc2c(c1)N(C)C(C)(C)[C@@H]1CC[C@@H](C)C[C@@H]21` [Example 1, (6aR,9R,10aR)-3-Methoxy-5,6,6,9-tetramethyl-5,6,6a,7,8,9,10,10a-octahydro-phenanthridine], in assay [2], the Ki (in general, the equilibrium dissociation constant of an inhibitor or competing ligand from its target) is 73 nM and 55 nM. Besides, the IC50 in assay [1] was 22300 nM and 27400 nM. Also, the EC50 (commonly the concentration needed to bring the measured effect to its halfway point) in assay [3] was 68 nM and 149 nM.
